According to ChEMBL document CHEMBL1201862, “PubChem BioAssay data set” (2004):
Blank lines part the entries; values can stand above or below the molecule they belong to. Activity calls are given as the source filed them.

Experiments:
[1] = biological target: T1, Endoribonuclease toxin MazF (Escherichia coli K-12, UniProt P0AE70); experiment: activation of MazEF endoribonuclease cleavage – biochemical, fluorescence, single-stranded RNA substrate, uHTS hits, dose response (AID 588481); assay type: functional
T1 sequence (P0AE70 whole entry): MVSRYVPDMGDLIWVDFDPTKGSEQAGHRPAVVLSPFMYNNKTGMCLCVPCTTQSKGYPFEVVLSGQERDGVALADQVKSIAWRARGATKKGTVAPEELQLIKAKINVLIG

[2] = biological target: T1, Endoribonuclease toxin MazF; experiment: substrate-only fluorescence increase artefacts – biochemical, single-stranded RNase substrate, counter-screen for MazEF activator project, dose response (AID 588502); assay type: functional
[3] = biological target: T2, Corticotropin-releasing factor receptor 2/Corticotropin-releasing factor-binding protein (Homo sapiens, UniProt P24387+Q13324); experiment: activators of CRF receptor 2 with binding protein – uHTS hits, confirmation (AID 602473); assay type: functional; details: read-out: EC50_Mean
T2 sequence (Q13324 whole entry): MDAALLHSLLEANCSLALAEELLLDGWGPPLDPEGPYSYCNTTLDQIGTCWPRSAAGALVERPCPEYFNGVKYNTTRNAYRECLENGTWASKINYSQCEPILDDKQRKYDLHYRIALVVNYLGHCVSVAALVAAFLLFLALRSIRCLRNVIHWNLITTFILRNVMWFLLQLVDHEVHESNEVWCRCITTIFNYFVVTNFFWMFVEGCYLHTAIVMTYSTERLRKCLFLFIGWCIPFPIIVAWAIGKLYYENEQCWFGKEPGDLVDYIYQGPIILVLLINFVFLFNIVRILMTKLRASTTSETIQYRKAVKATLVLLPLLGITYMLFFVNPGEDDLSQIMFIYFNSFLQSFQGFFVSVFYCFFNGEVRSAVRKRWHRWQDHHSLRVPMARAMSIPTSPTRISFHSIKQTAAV
T2 sequence (P24387 whole entry): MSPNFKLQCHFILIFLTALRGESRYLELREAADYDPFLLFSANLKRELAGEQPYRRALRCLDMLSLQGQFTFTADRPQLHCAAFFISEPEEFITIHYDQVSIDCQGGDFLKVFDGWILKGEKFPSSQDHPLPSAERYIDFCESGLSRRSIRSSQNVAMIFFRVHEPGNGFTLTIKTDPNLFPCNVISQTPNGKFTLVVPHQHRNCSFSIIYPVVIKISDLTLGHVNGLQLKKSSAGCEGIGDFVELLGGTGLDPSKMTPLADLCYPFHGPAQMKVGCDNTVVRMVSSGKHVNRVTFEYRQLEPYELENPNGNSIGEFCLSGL

[4] = biological target: Cyclin-dependent kinase 2 (Homo sapiens, UniProt P24941); experiment: inhibition of human CDK2/cyclin A – biochemical, cherry-picked samples, selectivity assay for Dyrk1A inhibitor project, dose response (AID 602127)
[5] = biological target: Dual specificity protein kinase CLK1 (Homo sapiens, UniProt P49759); experiment: inhibition of human CLK1 activity – biochemical, cherry-picked samples, selectivity assay for Dyrk1A inhibitor project, dose response (AID 588811)
Chain of Dual specificity protein kinase CLK1 (P49759 whole entry): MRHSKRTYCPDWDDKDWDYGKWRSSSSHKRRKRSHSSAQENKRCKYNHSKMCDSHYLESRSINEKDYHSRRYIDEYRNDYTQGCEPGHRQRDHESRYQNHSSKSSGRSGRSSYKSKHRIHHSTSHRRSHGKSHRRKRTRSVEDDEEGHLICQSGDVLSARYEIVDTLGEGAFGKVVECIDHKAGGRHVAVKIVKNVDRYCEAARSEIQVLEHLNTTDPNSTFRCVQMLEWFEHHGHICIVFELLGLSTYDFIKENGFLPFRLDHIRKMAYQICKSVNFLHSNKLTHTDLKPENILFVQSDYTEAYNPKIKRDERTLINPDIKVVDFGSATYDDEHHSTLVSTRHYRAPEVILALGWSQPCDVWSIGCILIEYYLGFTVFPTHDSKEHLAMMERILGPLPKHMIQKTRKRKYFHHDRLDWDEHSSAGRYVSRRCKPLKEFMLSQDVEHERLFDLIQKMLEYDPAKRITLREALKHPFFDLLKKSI

INS1 [6] = experiment: INS-1E mitochondrial potential loss inhibitors – cell-based, JC-1 fluorescence, dry powder, set 2, dose response (AID 488867); assay type: functional; details: Rattus norvegicus
INS1 [7] = experiment: INS-1E mitochondrial potential rescue under cytokines – cell-based, JC-1 fluorescence ratio, dry powder, dose response (AID 488931); assay type: functional; details: Rattus norvegicus
[8] = NIH-3T3 fibroblast cytotoxicity, dose response, cytotoxicity control, cell-based, fluorescence, Alamar Blue, secondary assay (AID 2327); assay type: functional;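 further: NIH-3T3 mouse fibroblasts cultured with fluconazole at 8 µg/mL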
[9] = fluconazole-exposed Candida albicans growth modulators – fluorescence, retest, confirmation (AID 2467); assay type: functional, cell-based
[10] = biological target: T3, Serine/threonine-protein phosphatase (Candida dubliniensis (strain CD36 / CBS 7987 / NCPF 3949 / NRRLY-17841) (Yeast), UniProt B9W6M3); experiment: blockers of CaCl2-induced CDRE-lacZ signaling – S. cerevisiae, luminescence, secondary, dose response (AID 2388); assay type: functional, cell-based;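 further: yeast reporter cells carrying a calcineurin-responsive lacZ construct stimulated with calcium chloride; luminescent beta-galactosidase reporter signal in whole cells rather than isolated phosphatase activity; potency for inhibition where a drop in reporter signal means calcineurin blockade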
T3 sequence (B9W6M3 whole entry): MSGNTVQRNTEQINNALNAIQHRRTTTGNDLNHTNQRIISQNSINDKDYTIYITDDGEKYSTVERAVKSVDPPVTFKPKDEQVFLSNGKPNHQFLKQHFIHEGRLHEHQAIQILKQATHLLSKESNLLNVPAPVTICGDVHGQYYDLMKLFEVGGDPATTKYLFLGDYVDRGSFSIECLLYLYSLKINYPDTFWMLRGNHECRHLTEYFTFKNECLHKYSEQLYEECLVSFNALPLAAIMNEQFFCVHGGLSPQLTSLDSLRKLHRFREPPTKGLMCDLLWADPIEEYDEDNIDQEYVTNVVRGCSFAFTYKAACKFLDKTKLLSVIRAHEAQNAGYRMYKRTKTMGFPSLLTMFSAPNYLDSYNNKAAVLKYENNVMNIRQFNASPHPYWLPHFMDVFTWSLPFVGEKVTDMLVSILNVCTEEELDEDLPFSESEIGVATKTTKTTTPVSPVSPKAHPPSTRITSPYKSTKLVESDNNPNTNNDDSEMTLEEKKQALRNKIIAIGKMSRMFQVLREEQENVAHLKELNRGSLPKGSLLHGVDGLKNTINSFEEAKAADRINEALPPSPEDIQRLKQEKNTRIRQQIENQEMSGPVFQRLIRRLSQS

[11] = Luminescence Cell-Based Dose Retest to Confirm Inhibitors of Cancer Stem Cells. [Related pubchem assays (depositor defined):AID2717, AID2721]; assay type: functional; details: Homo sapiens
[12] = biological target: T3, Serine/threonine-protein phosphatase; experiment: Fluorescence Cell-Based Secondary Assay to Identify Inhibitors of Calcineurin. [Related pubchem assays (depositor defined):AID1979, AID2007]; assay type: functional
[13] = biological target: ATP-dependent molecular chaperone HSP82 (Candida albicans (strain WO-1) (Yeast), UniProt C4YTQ8); experiment: steroid-induced GRE reporter decrease in yeast – S. cerevisiae, luminescence, Hsp90 inhibitor project, dose response (AID 2400); assay type: functional, cell-based;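 further: beta-galactosidase luminescence from glucocorticoid response element reporter as proxy for Hsp90 function; inhibitor potency where signal loss means Hsp90 inhibition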
Chain of ATP-dependent molecular chaperone HSP82 (C4YTQ8 whole entry): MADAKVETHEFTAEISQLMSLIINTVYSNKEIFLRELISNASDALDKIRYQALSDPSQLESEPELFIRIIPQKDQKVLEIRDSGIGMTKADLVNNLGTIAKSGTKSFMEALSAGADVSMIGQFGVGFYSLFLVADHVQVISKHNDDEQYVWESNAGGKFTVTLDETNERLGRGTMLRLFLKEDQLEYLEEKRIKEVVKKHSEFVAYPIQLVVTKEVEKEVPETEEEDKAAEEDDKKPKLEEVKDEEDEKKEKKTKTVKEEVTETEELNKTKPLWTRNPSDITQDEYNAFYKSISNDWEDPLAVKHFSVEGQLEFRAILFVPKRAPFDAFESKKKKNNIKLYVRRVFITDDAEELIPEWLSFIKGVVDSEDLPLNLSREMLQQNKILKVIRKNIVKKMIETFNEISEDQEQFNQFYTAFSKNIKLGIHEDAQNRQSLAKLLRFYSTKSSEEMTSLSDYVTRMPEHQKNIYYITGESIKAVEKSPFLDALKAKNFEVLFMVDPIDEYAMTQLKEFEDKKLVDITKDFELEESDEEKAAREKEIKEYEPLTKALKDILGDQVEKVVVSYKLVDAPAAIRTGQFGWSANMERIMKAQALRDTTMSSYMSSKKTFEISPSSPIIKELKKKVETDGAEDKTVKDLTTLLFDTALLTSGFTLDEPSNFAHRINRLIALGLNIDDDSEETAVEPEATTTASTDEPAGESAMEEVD

[14] = biological target: G-protein coupled receptor 55 (Homo sapiens, UniProt Q9Y2T6); experiment: selective activators of receptor GPR55 – imaging, U2OS cells, beta-arrestin-GFP redistribution, primary screen (AID 1961); assay type: functional
Chain of G-protein coupled receptor 55 (Q9Y2T6 whole entry): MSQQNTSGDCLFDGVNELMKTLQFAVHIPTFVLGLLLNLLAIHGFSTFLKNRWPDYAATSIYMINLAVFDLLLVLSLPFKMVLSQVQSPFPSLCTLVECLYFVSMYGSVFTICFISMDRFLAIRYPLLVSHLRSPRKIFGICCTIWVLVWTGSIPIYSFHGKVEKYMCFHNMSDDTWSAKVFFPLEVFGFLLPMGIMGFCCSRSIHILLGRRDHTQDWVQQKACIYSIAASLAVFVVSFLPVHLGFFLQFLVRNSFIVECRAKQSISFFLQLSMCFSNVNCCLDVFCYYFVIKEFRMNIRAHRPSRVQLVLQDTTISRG

CAAX prenyl protease 2 = biological target: T4, CAAX prenyl protease 2 (Saccharomyces cerevisiae S288c, UniProt Q03530); assay type: biochemical
T4 sequence (Q03530 whole entry): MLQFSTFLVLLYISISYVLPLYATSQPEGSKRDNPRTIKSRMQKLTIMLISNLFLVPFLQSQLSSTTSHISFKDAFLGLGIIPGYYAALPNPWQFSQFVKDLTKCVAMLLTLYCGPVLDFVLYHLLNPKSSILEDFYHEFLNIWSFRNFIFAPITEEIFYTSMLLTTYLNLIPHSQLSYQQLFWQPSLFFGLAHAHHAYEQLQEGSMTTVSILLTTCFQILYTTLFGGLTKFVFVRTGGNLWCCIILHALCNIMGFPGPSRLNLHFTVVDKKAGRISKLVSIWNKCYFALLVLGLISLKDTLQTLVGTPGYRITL

CAAX prenyl protease 1 = CAAX prenyl protease 1 (Saccharomyces cerevisiae S288c, UniProt P47154); experiment: yeast CAAX protease Ste24 inhibition – biochemical, S. cerevisiae, plate reader, cherry-pick, dose response (AID 488815)
Chain of CAAX prenyl protease 1 (P47154 whole entry): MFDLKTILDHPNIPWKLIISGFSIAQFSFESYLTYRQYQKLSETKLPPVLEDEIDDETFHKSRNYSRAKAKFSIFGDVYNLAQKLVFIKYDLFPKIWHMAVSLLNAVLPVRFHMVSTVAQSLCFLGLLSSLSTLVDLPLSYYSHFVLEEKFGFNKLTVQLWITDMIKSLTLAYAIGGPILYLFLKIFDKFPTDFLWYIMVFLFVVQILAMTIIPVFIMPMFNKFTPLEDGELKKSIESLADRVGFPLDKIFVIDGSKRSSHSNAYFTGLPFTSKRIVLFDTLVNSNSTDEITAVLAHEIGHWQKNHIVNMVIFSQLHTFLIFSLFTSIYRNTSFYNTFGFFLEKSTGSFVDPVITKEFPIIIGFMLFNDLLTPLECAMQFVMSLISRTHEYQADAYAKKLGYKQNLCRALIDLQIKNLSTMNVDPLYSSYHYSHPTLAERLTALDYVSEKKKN

INS1 [15] = experiment: INS-1E survival protection against cytokine death – cell-based, luminescence, retest, dose response (AID 449756); assay type: functional; details: Rattus norvegicus;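 further: cell death triggered by IL-1 beta plus TNF-alpha plus IFN-gamma mixture; protective hits raise ATP signal compared with cytokine alone wells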
[16] = reduction of Shn3 3'UTR-driven luciferase in osteoblasts – cell-based, Clone20 osteoblasts, firefly luciferase, cherry-picked, dose response (AID 624132); assay type: functional;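 further: firefly luciferase luminescence from reporter carrying the Shn3 3'UTR in osteoblasts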
[17] = loss of viability in HepG2 cells – cell-based, CellTiter-Glo, cherry-picked, cytotoxicity control for Shn3 inhibitor project, dose response (AID 624134); assay type: functional
[18] = non-specific 3'UTR reporter inhibition in Clone20-Shn3RL – cell-based, Renilla luciferase, cherry-picked, counter-screen for Shn3 inhibitor project, dose response (AID 624133); assay type: functional

Structure (SMILES): CC1CCN(c2ccc3c(c2)S(=O)(=O)c2cccc(C(=O)NCc4ccc(F)cc4)c2C3=O)CC1
EC50 [1]: > 99 µM (inactive) | EC50 [2]: 38 µM (inactive) | EC50 [3]: 5.16 µM (active)

AC50 [4]: 11.3 µM (active) | AC50 [5]: < 0.00195 µM (active)
Structure (SMILES): Cc1ccc(CN(C)c2ncnc3ccc(-c4ccc5c(c4)OCO5)cc23)o1

Structure (SMILES): C[C@@H]1CN([C@@H](C)CO)C(=O)c2cccc(NC(=O)Nc3cccc4ccccc34)c2O[C@H]1CN(C)S(=O)(=O)c1ccc2c(n1)N(C)CCO2
AC50 (INS1 [6]): 69.4 µM (active) | AC50 (INS1 [7]): 61.1 µM (active)

Structure (SMILES): Cc1oc2c(F)c(F)c(F)c(F)c2c1S(=O)(=O)Nc1cccc(C(F)(F)F)c1
EC50 [8]: > 160 µM (inconclusive) | EC50 [9]: 0.859 µM (active) | EC50 [10]: 18.1 µM (active) | AC50 [11]: 2.3 µM (active) | EC50 [12]: 9.76 µM (active) | EC50 [13]: 4.6 µM (active)

Structure (SMILES): COc1ccc(C2/C=C\CN(C(=O)c3ccc(C)cc3)[C@H](Cc3ccccc3)C(=O)N2Cc2ccc(F)cc2)cc1 (stereo not given in full)
EC50 [14]: > 32 µM (inactive) | AC50 (CAAX prenyl protease 2): 35.1 µM (active) | AC50 (CAAX prenyl protease 1): 37.3 µM (active) | AC50 (INS1 [15]): 7.14 µM (active) | AC50 [16]: 0.772 µM (active) | AC50 [17]: > 70 µM (inactive) | AC50 [18]: 18.1 µM (active)
